The values that follow come from patent US11566057B2, “Long-acting co-agonists of the glucagon and GLP-1 receptors” (Merck Sharp & Dohme Corp., priority 2017, dated 2023).

Numbered stars: 1 amine (or outer) side, 2 acyl side, 3 side chain; on linkers, the order of the positions; unused ones are H or OH. Square brackets hold non-standard residues; d marks the D form. Side chains are listed from the residue outwards. Peptide text beside a SMILES is read from it. * marks the point of attachment. C20 diacid = O=C(O)CCCCCCCCCCCCCCCCCCC(=O)*; Phe(4-CH2NH2) = NCc1ccc(C[C@H](N)C(=O)O)cc1; C18 diacid = O=C(O)CCCCCCCCCCCCCCCCC(=O)*; αMeW = C[C@](N)(Cc1c[nH]c2ccccc12)C(=O)O; C16 diacid = O=C(O)CCCCCCCCCCCCCCC(=O)*; γGlu = O=C(O)[C@H](CCC(=O)[*:2])N[*:1]; Met(O2) = CS(=O)(=O)CC[C@H](N)C(=O)O; αMeD = C[C@](N)(CC(=O)O)C(=O)O; AEEA = NCCOCCOCC(=O)O; Aib = CC(C)(N)C(=O)O

The target in this assay is T1, human GCGR (Homo sapiens, UniProt P47871).
T1 construct: expressed in transfected cells; growth medium holds Blasticidin and Hygromycin
T1 sequence (P47871 26-477): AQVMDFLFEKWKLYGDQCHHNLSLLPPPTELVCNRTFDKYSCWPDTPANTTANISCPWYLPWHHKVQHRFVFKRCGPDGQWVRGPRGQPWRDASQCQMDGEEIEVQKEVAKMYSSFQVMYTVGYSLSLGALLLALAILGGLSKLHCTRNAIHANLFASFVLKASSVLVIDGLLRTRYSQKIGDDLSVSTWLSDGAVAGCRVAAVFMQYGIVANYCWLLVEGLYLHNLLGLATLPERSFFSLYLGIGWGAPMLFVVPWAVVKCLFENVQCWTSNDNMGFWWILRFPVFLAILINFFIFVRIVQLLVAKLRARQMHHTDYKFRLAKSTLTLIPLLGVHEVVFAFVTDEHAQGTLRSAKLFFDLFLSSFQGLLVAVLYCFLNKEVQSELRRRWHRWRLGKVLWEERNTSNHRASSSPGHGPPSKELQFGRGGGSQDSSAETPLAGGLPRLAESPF
The experiment in a line: cAMP activity assay at the Glucagon receptor (GCGR). Format: cell-based. As to conditions: for hGCGR/hGLP1R (hTone): ratio of GCGR EC50 to GLP1R EC50; for EC50: cells expressing human GCGR, cAMP production, buffer with or without 20% human serum (not stated which), read-out: GCGR EC50 human. Here is the method:
Activity of the peptides at the Glucagon receptor (GCGR) and GLP-1 receptor (GLP1R) was measured in a cAMP activity assay.
GCG/GLP-1 receptor co-agonist peptides were dissolved in 100% DMSO (dimethyl sulfoxide) and serially diluted to generate 10 point titrations. The peptide solutions were then transferred into 384-well assay plates (150 nL/well). Assay ready frozen cells expressing human GLP1R or human GCGR were suspended in growth media consisting of DMEM medium (GIBCO®), 10% FBS (GIBCO®), 1×NEAA(GIBCO®), 1×P/S (GIBCO®), 10 ug/mL Blasticidin (GIBCO®) and 200 μg/mL Hygromycin (GIBCO®). […] The cell suspensions (15 μL) were then added to the assay plates containing the peptide solutions (30,000 cells/well for human GCGR; 10,000 cells/well for human GLP1R). The cells were incubated for 1 hour at room temperature in the dark. Production of cAMP was determined using HitHunter™ cAMPXS kits (DiscoverX) following manufacturer protocol. The plates were incubated for overnight at room temperature in the dark. Luminescence was measured using an EnVision Multilabel plate reader (Perkin Elmer). Native GLP-1 and Glucagon (Bachem) are used as control peptides. EC50 values were calculated using uses a 4 parameter logistic fit based on the Levenberg-Marquardt algorithm.
A general note: cAMP levels reflect the balance of adenylyl cyclase and phosphodiesterase activity.

With `CC(C)C[C@H](NC(=O)[C@H](Cc1ccc(O)cc1)NC(=O)[C@H](CCCCN)NC(=O)[C@H](CO)NC(=O)[C@H](Cc1ccc(O)cc1)NC(=O)[C@H](CC(=O)O)NC(=O)[C@H](CO)NC(=O)[C@@H](NC(=O)[C@H](Cc1ccccc1)NC(=O)[C@@H](NC(=O)CNC(=O)[C@H](CCC(N)=O)NC(=O)C(C)(C)NC(=O)[C@@H](N)Cc1c[nH]cn1)[C@@H](C)O)[C@@H](C)O)C(=O)N[C@@H](CC(=O)O)C(=O)N[C@@H](C)C(=O)N[C@@H](CCCNC(=N)N)C(=O)N[C@@H](C)C(=O)N[C@@H](C)C(=O)N[C@@H](CCC(N)=O)C(=O)N[C@@H](CC(=O)O)C(=O)N[C@@H](Cc1ccccc1)C(=O)N[C@H](C(=O)N[C@@H](Cc1ccc(CNC(=O)COCCOCCNC(=O)COCCOCCNC(=O)CC[C@H](NC(=O)CCCCCCCCCCCCCCCCC(=O)O)C(=O)O)cc1)C(=O)N[C@@H](Cc1c[nH]c2ccccc12)C(=O)N[C@@H](CC(C)C)C(=O)N[C@@H](CC(C)C)C(=O)N[C@@H](CC(=O)O)C(=O)N[C@H](C(N)=O)[C@@H](C)O)C(C)C` [TP583] (H-H[Aib]QGTFTSDYSKYLDARAAQDFV[Phe(4-CH2NH2)]([AEEA-AEEA-γGlu-C18 diacid])WLLDT-NH2; N-terminus assumed), the “hGCGR/hGLP1R (hTone)” value came out at 8.6.
Take `CC(C)C[C@H](NC(=O)[C@H](CC(C)C)NC(=O)[C@H](Cc1c[nH]c2ccccc12)NC(=O)[C@H](CCC(N)=O)NC(=O)[C@@H](NC(=O)[C@H](Cc1ccccc1)NC(=O)[C@H](CC(=O)O)NC(=O)[C@H](CCC(N)=O)NC(=O)[C@H](C)NC(=O)[C@H](C)NC(=O)[C@H](CCCNC(=N)N)NC(=O)C(C)(C)NC(=O)[C@H](CC(=O)O)NC(=O)[C@H](CC(C)C)NC(=O)[C@H](Cc1ccc(O)cc1)NC(=O)[C@H](CCCCN)NC(=O)[C@H](CO)NC(=O)[C@H](Cc1ccc(CNC(=O)COCCOCCNC(=O)COCCOCCNC(=O)CC[C@H](NC(=O)CCCCCCCCCCCCCCCCCCC(=O)O)C(=O)O)cc1)NC(=O)[C@H](CC(=O)O)NC(=O)[C@H](CO)NC(=O)[C@@H](NC(=O)[C@H](Cc1ccccc1)NC(=O)[C@@H](NC(=O)CNC(=O)[C@H](CCC(N)=O)NC(=O)C(C)(C)NC(=O)[C@@H](N)Cc1c[nH]cn1)[C@@H](C)O)[C@@H](C)O)C(C)C)C(=O)N[C@@H](C)C(=O)N[C@H](C(=O)N[C@@H](CCCCNC(=O)CC[C@H](N)C(=O)O)C(N)=O)[C@@H](C)O` [TP581] (H-H[Aib]QGTFTSD[Phe(4-CH2NH2)]([AEEA-AEEA-γGlu-C20 diacid])SKYLD[Aib]RAAQDFVQWLLATK(γGlu)-NH2; N-terminus assumed): the “hGCGR/hGLP1R (hTone)” value is 2.9.
Same read-out and setting: with `CC(C)C[C@H](NC(=O)[C@H](Cc1ccc(O)cc1)NC(=O)[C@H](CCCCN)NC(=O)[C@H](CO)NC(=O)[C@H](Cc1ccc(O)cc1)NC(=O)[C@H](CC(=O)O)NC(=O)[C@H](CO)NC(=O)[C@@H](NC(=O)[C@H](Cc1ccccc1)NC(=O)[C@@H](NC(=O)CNC(=O)[C@H](CCC(N)=O)NC(=O)C(C)(C)NC(=O)[C@@H](N)Cc1c[nH]cn1)[C@@H](C)O)[C@@H](C)O)C(=O)N[C@@H](CC(=O)O)C(=O)N[C@@H](C)C(=O)N[C@@H](CCCNC(=N)N)C(=O)N[C@@H](C)C(=O)N[C@@H](C)C(=O)N[C@@H](CCC(N)=O)C(=O)N[C@@H](CC(=O)O)C(=O)N[C@@H](Cc1ccccc1)C(=O)N[C@H](C(=O)N[C@@H](Cc1ccc(CNC(=O)CC[C@H](NC(=O)CCCCCCCCCCCCCCCCC(=O)O)C(=O)O)cc1)C(=O)N[C@@H](Cc1c[nH]c2ccccc12)C(=O)N[C@@H](CC(C)C)C(=O)N[C@@H](CC(C)C)C(=O)N[C@@H](CC(=O)O)C(=O)N[C@H](C(N)=O)[C@@H](C)O)C(C)C` [TP639] (H-H[Aib]QGTFTSDYSKYLDARAAQDFV[Phe(4-CH2NH2)]([γGlu-C18 diacid])WLLDT-NH2; N-terminus assumed) the figure was 1.6; with `CC(C)C[C@H](NC(=O)[C@H](Cc1ccc(O)cc1)NC(=O)[C@H](CCCCN)NC(=O)[C@H](CO)NC(=O)[C@H](Cc1ccc(O)cc1)NC(=O)[C@H](CC(=O)O)NC(=O)[C@H](CO)NC(=O)[C@@H](NC(=O)[C@H](Cc1ccccc1)NC(=O)[C@@H](NC(=O)CNC(=O)[C@H](CCC(N)=O)NC(=O)C(C)(C)NC(=O)[C@@H](N)Cc1c[nH]cn1)[C@@H](C)O)[C@@H](C)O)C(=O)N[C@@H](CC(=O)O)C(=O)N[C@@H](C)C(=O)N[C@@H](CCCNC(=N)N)C(=O)N[C@@H](C)C(=O)N[C@@H](C)C(=O)N[C@@H](CCCCNC(=O)COCCOCCNC(=O)COCCOCCNC(=O)CC[C@H](NC(=O)CCCCCCCCCCCCCCC(=O)O)C(=O)O)C(=O)N[C@@H](CC(=O)O)C(=O)N[C@@H](Cc1ccccc1)C(=O)N[C@H](C(=O)N[C@@H](CCC(N)=O)C(=O)N[C@@](C)(Cc1c[nH]c2ccccc12)C(=O)N[C@@H](CC(C)C)C(=O)N[C@@H](CCS(C)(=O)=O)C(=O)N[C@@H](CC(=O)O)C(=O)N[C@H](C(N)=O)[C@@H](C)O)C(C)C` [TP630] (H-H[Aib]QGTFTSDYSKYLDARAAK([AEEA-AEEA-γGlu-C16 diacid])DFVQ[αMeW]L[Met(O2)]DT-NH2; N-terminus assumed), 3.0.
For orientation: EC50 means the concentration that produces a half-maximal response. As for `CC(C)C[C@H](NC(=O)[C@H](Cc1ccc(O)cc1)NC(=O)[C@H](CCC(=O)O)NC(=O)[C@H](CO)NC(=O)[C@H](Cc1ccc(O)cc1)NC(=O)[C@H](CC(=O)O)NC(=O)[C@H](CO)NC(=O)[C@@H](NC(=O)[C@H](Cc1ccccc1)NC(=O)[C@@H](NC(=O)CNC(=O)[C@H](CCC(N)=O)NC(=O)C(C)(C)NC(=O)[C@@H](N)Cc1c[nH]cn1)[C@@H](C)O)[C@@H](C)O)C(=O)N[C@@H](CC(=O)O)C(=O)N[C@@H](CCCCN)C(=O)N[C@@H](CCCNC(=N)N)C(=O)N[C@@H](C)C(=O)N[C@@H](C)C(=O)N[C@@H](CCC(N)=O)C(=O)N[C@@H](CC(=O)O)C(=O)N[C@@H](Cc1ccccc1)C(=O)N[C@H](C(=O)N[C@@H](CCCCNC(=O)COCCOCCNC(=O)COCCOCCNC(=O)CC[C@H](NC(=O)CCCCCCCCCCCCCCCCC(=O)O)C(=O)O)C(=O)N[C@@H](Cc1c[nH]c2ccccc12)C(=O)N[C@@H](CC(C)C)C(=O)N[C@@H](CCS(C)(=O)=O)C(=O)N[C@@H](CC(=O)O)C(=O)N[C@H](C(N)=O)[C@@H](C)O)C(C)C` [TP700] (H-H[Aib]QGTFTSDYSEYLDKRAAQDFVK([AEEA-AEEA-γGlu-C18 diacid])WL[Met(O2)]DT-NH2), the EC50 is above 4.9 nM.
On to `CC(C)C[C@H](NC(=O)[C@H](Cc1ccc(O)cc1)NC(=O)[C@H](CCCCN)NC(=O)[C@H](CO)NC(=O)[C@H](Cc1ccc(O)cc1)NC(=O)[C@H](CC(=O)O)NC(=O)[C@H](CO)NC(=O)[C@@H](NC(=O)[C@H](Cc1ccccc1)NC(=O)[C@@H](NC(=O)CNC(=O)[C@H](CCC(N)=O)NC(=O)C(C)(C)NC(=O)[C@@H](N)Cc1c[nH]cn1)[C@@H](C)O)[C@@H](C)O)C(=O)N[C@@H](CC(=O)O)C(=O)N[C@@H](CCC(=O)O)C(=O)N[C@@H](CCCNC(=N)N)C(=O)N[C@@H](C)C(=O)N[C@@H](C)C(=O)N[C@@H](CCCCNC(=O)COCCOCCNC(=O)COCCOCCNC(=O)CC[C@H](NC(=O)CCCCCCCCCCCCCCCCC(=O)O)C(=O)O)C(=O)N[C@@H](CC(=O)O)C(=O)N[C@@H](Cc1ccccc1)C(=O)N[C@H](C(=O)N[C@@H](CCC(N)=O)C(=O)N[C@@H](Cc1c[nH]c2ccccc12)C(=O)N[C@@H](CC(C)C)C(=O)N[C@@H](CCS(C)(=O)=O)C(=O)N[C@@](C)(CC(=O)O)C(=O)N[C@H](C(N)=O)[C@@H](C)O)C(C)C` [TP613] (H-H[Aib]QGTFTSDYSKYLDERAAK([AEEA-AEEA-γGlu-C18 diacid])DFVQWL[Met(O2)][αMeD]T-NH2), for which the EC50 was above 5 nM and the “hGCGR/hGLP1R (hTone)” value is listed as above 6.
As to `CC(C)C[C@H](NC(=O)[C@H](Cc1ccc(O)cc1)NC(=O)[C@H](CCCCN)NC(=O)[C@H](CO)NC(=O)[C@H](Cc1ccc(O)cc1)NC(=O)[C@H](CC(=O)O)NC(=O)[C@H](CO)NC(=O)[C@@H](NC(=O)[C@H](Cc1ccccc1)NC(=O)[C@@H](NC(=O)CNC(=O)[C@H](CCC(N)=O)NC(=O)C(C)(C)NC(=O)[C@@H](N)Cc1c[nH]cn1)[C@@H](C)O)[C@@H](C)O)C(=O)N[C@@H](CC(=O)O)C(=O)N[C@@H](C)C(=O)N[C@@H](CCCNC(=N)N)C(=O)N[C@@H](C)C(=O)N[C@@H](C)C(=O)N[C@@H](CCCCNC(=O)COCCOCCNC(=O)COCCOCCNC(=O)CC[C@H](NC(=O)CCCCCCCCCCCCCCCCCCC(=O)O)C(=O)O)C(=O)N[C@@H](CC(=O)O)C(=O)N[C@@H](Cc1ccccc1)C(=O)N[C@H](C(=O)N[C@@H](CCC(N)=O)C(=O)N[C@@H](Cc1c[nH]c2ccccc12)C(=O)N[C@@H](CC(C)C)C(=O)N[C@@H](CCS(C)(=O)=O)C(=O)N[C@@](C)(CC(=O)O)C(=O)N[C@H](C(N)=O)[C@@H](C)O)C(C)C` [TP565] (H-H[Aib]QGTFTSDYSKYLDARAAK([AEEA-AEEA-γGlu-C20 diacid])DFVQWL[Met(O2)][αMeD]T-NH2; N-terminus assumed), the “hGCGR/hGLP1R (hTone)” value was determined as 2.4.
